Results as given in ChEMBL document CHEMBL5608234, “Heat Shock Protein 90 Interactome-Mediated Proteolysis Targeting Chimera (HIM-PROTAC) Degrading Glutathione Peroxidase 4 to Trigger Ferroptosis” (J Med Chem, 2024).
The source made the active and inactive calls. No cut-off for these calls is given here.

Tests used:
4T1 = experiment: HIM-PROTAC activity at GPX4/HSP90/E3 ligase in […] cells assessed as reduction in GPX4 level at 0.1 to 3 uM incubated for 24 hrs by Western blotting analysis; assay type: cell-based; conditions: dose 0.1-3 µM
HT-1080 [1] = experiment: HIM-PROTAC activity at GPX4/HSP90/E3 ligase in human HT-1080 cells assessed as downregulation of GPX4 mRNA level at 1 uM incubated for 24 hrs by qRT-PCR analysis; assay type: cell-based
HT-1080 [2] = experiment: HIM-PROTAC activity at GPX4/HSP90/E3 ligase in human HT-1080 cells assessed as reduction in GPX4 level at 1 uM incubated for 24 hrs by Western blotting analysis; assay type: cell-based; design: scale not given: the % may be the effect or the level left
[3] = Drug uptake in human HT-1080 cells at 5 uM incubated for 6 hrs by LC-MS analysis; assay type: ADME, cell-based; conditions: ht-1080, 6 h
[4] = Drug uptake in human HT-1080 cells at 5 uM incubated for 18 hrs by LC-MS analysis; assay type: ADME, cell-based; conditions: ht-1080, 18 h
HT-1080 [5] = experiment: HIM-PROTAC activity at GPX4/HSP90/E3 ligase in human HT-1080 cells assessed as GPX4 degradation at 1 uM measured 24 hrs post compound washout by Western blotting analysis; assay type: cell-based
HT-1080 [6] = experiment: Upregulation of HMOX1 protein level in human HT-1080 cells at 1 uM incubated for 24 hrs by proteomics analysis; assay type: functional, cell-based
HT-1080 [7] = experiment: Induction of ferroptosis in human HT-1080 cells assessed as increase in HMOX1 protein level after 24 hrs by Western blotting analysis; assay type: functional, cell-based; conditions: dose 0.1-3 µM
HT-1080 [8] = experiment: Induction of ferroptosis in human HT-1080 cells assessed as increase in lipid peroxidation by measuring fluorescence intensity incubated for 12 hrs by C11-BODIPSY 581/591 staining based flow cytometry analysis; assay type: functional, cell-based; conditions: dose 0.1-3 µM
HT-1080 [9] = experiment: Induction of ferroptosis in human HT-1080 cells assessed as increase in lipid peroxidation by measuring fluorescence intensity at 1 uM incubated for 12 hrs in presence of Fer-1 by C11-BODIPSY 581/591 staining based flow cytometry analysis; assay type: functional, cell-based
HT-1080 [10] = experiment: Induction of ferroptosis in human HT-1080 cells assessed as increase in ROS level at 1 uM incubated for 24 hrs by DCFH-DA staining based confocal laser scanning microscopic analysis; assay type: functional, cell-based
HT-1080 [11] = experiment: Induction of ferroptosis in human HT-1080 cells assessed as mitochondrial swelling at 1 uM incubated for 24 hrs by TEM analysis; assay type: functional, cell-based
[12] = Half-life in ICR mouse at 25 mg/kg, ip measured upto 24 hrs by LC-MS/MS analysis; assay type: ADME, organism-based; conditions: in vivo
[13] = Tmax in ICR mouse at 25 mg/kg, ip measured upto 24 hrs by LC-MS/MS analysis; assay type: ADME, organism-based; conditions: in vivo
[14] = AUC(0 to t) in ICR mouse at 25 mg/kg, ip measured upto 24 hrs by LC-MS/MS analysis; assay type: ADME, organism-based; conditions: in vivo
HT-1080 [15] = experiment: Antitumor activity against human HT-1080 cells xenografted in ip dosed BALB/c mouse assessed as tumor growth suppression administered once daily; assay type: functional, organism-based; conditions: dose 25-50 mg/kg
[16] = Toxicity in BALB/c mouse xenografted with human HT-1080 cells assessed as change in heart morphology at 25 to 50 mg/kg, ip administered once daily by H and E staining based assay; assay type: organism-based; conditions: in vivo, dose 25-50 mg/kg
[17] = Toxicity in BALB/c mouse xenografted with human HT-1080 cells assessed as change in liver morphology at 25 to 50 mg/kg, ip administered once daily by H and E staining based assay; assay type: organism-based; conditions: in vivo, dose 25-50 mg/kg
[18] = Toxicity in BALB/c mouse xenografted with human HT-1080 cells assessed as change in lung morphology at 25 to 50 mg/kg, ip administered once daily by H and E staining based assay; assay type: organism-based; conditions: in vivo, dose 25-50 mg/kg
Mus musculus [19] = experiment: Downregulation of GPX4 level in ip dosed BALB/c mouse xenografted with human HT-1080 cells administered once daily by immunohistochemistry analysis; assay type: functional, organism-based; conditions: dose 25-50 mg/kg
Mus musculus [20] = experiment: Upregulation of 4-HNE protein level in BALB/c mouse tumor xenografted with human HT-1080 cells at 50 to 100 mg/kg, ip measured upto 36 hrs; assay type: functional, organism-based; conditions: dose 50-100 mg/kg
HT-1080 [21] = experiment: HIM-PROTAC activity at GPX4/HSP90/E3 ligase in human HT-1080 cells assessed as reduction in GPX4 level incubated for 24 hrs by Western blotting analysis; assay type: cell-based
HT-1080 [22] = experiment: HIM-PROTAC activity at GPX4/HSP90/E3 ligase in human HT-1080 cells assessed as downregulation of GPX4 mRNA level at 0.1 to 1 uM incubated for 24 hrs by qRT-PCR analysis; assay type: cell-based; conditions: dose 0.1-1 µM
HT-1080 [23] = experiment: HIM-PROTAC activity at GPX4/HSP90/E3 ligase in human HT-1080 cells assessed as GPX4 degradation at 1 uM measured 12 hrs post compound washout by Western blotting analysis; assay type: cell-based
HT-1080 [24] = experiment: HIM-PROTAC activity at GPX4/HSP90/E3 ligase in HSP90-knockdown human HT-1080 cells assessed as GPX4 degradation at 1 uM preincubated with KW-2478 for 3 hrs followed by compound addition and measured after 24 hrs by Western blotting analysis; assay type: cell-based
HT-1080 [25] = experiment: HIM-PROTAC activity at GPX4/HSP90/E3 ligase in HSP90-knockdown human HT-1080 cells assessed as GPX4 degradation at 1 uM preincubated with KUNB-31 for 3 hrs followed by compound addition and measured after 24 hrs by Western blotting analysis; assay type: cell-based
HT-1080 [26] = experiment: HIM-PROTAC activity at GPX4/HSP90/E3 ligase in HSP90-knockdown human HT-1080 cells assessed as GPX4 degradation at 1 uM preincubated with KW-2478 and KUNB-31 for 3 hrs followed by compound addition and measured after 24 hrs by Western blotting analysis; assay type: cell-based
HT-1080 [27] = experiment: HIM-PROTAC activity at GPX4/HSP90/E3 ligase in human HT-1080 cells assessed as GPX4 degradation at 0.3 to 1 uM preincubated with MLN4924 for 2 hrs followed by compound addition and measured after 24 hrs by Western blotting analysis; assay type: cell-based; conditions: dose 0.3-1 µM
HT-1080 [28] = experiment: HIM-PROTAC activity at GPX4/HSP90/E3 ligase in CUL1-knockdown human HT-1080 cells assessed as GPX4 degradation at 0.3 to 1 uM incubated for 24 hrs by Western blotting analysis; assay type: cell-based; conditions: dose 0.3-1 µM
HT-1080 [29] = experiment: HIM-PROTAC activity at GPX4/HSP90/E3 ligase in CUL2-knockdown human HT-1080 cells assessed as GPX4 degradation at 0.3 to 1 uM incubated for 24 hrs by Western blotting analysis; assay type: cell-based; conditions: dose 0.3-1 µM
HT-1080 [30] = experiment: HIM-PROTAC activity at GPX4/HSP90/E3 ligase in LZTR1 knockdown human HT-1080 cells assessed as GPX4 degradation at 0.3 to 1 uM incubated for 24 hrs by Western blotting analysis; assay type: cell-based; conditions: dose 0.3-1 µM
HT-1080 [31] = experiment: HIM-PROTAC activity at GPX4/HSP90/E3 ligase in CHIP knockdown human HT-1080 cells assessed as GPX4 degradation at 1 uM incubated for 24 hrs by Western blotting analysis; assay type: cell-based

Structure (SMILES) | Activity (4T1) | Activity (HT-1080 [2]) [%] | Activity (HT-1080 [6]) | Activity (HT-1080 [7]) | Activity (HT-1080 [8]) | Activity (HT-1080 [9]) | Activity (HT-1080 [10]) | Activity (HT-1080 [11]) | half-life [12] [h] | Tmax [13] [h] | AUC(0-t) at 24 h [14] [ng·h/mL] | Activity (HT-1080 [15]) | Activity [16] | Activity [17] | Activity [18] | Activity (Mus musculus [19]) | Activity (Mus musculus [20]) | also measured
COc1c(C)cnc(Cn2cnc3c(NCCOCCOCCOCCn4cc(COc5ccc(N(C(=O)CCl)C(C(=O)NCCc6ccccc6)c6cccs6)cc5Cl)nn4)nc(N)nc32)c1C (centres undefined) | Active | 100 | Active | Dose-Dependent Effect | Dose-Dependent Effect | inactive | Active | Active | 5.5 | 2 | 726 | Dose-Dependent Effect | Non-Toxic | Non-Toxic | Non-Toxic | Dose-Dependent Effect | Active | Activity (HT-1080 [1]): Active; Drug uptake [3]: Active; Drug uptake [4]: Not Active; Activity (HT-1080 [5]): Active
COc1c(C)cnc(Cn2cnc3c(NCCC4CCN(C(=O)Cn5cc(COc6ccc(N(C(=O)CCl)C(C(=O)NCCc7ccccc7)c7cccs7)cc6Cl)nn5)CC4)nc(N)nc32)c1C (centres undefined) | Active | 100 | Active | Dose-Dependent Effect | Dose-Dependent Effect | inactive | Active | Active | 5 | 2 | 334 | Dose-Dependent Effect | Non-Toxic | Non-Toxic | Non-Toxic | Dose-Dependent Effect | Active | Activity (HT-1080 [21]): Dose-Dependent Effect; Activity (HT-1080 [22]): inactive; Activity (HT-1080 [23]): Active; Activity (HT-1080 [24]): inactive; Activity (HT-1080 [25]): inactive; Activity (HT-1080 [26]): inactive; Activity (HT-1080 [27]): inactive; Activity (HT-1080 [28]): Active; Activity (HT-1080 [29]): Active; Activity (HT-1080 [30]): Active; Activity (HT-1080 [31]): inactive
